This is an account of results in patent US4908452A, “Process for preparing nitriles” (Merck & Co., Inc., priority 1987, dated 1990).

The test deals with Factor XIIIa. In words: Factor XIIIa inhibitor assay (14C-putrescine incorporation into N,N-dimethyl-casein). The format is biochemical, human. Here is the method: The Factor XIIIa inhibitor activity may be determined by an assay described in Methods in Enzymology, Vol. 45, Ch 15, pages 177-191 (1976) and using Factor XIII isolated from human plasma. Briefly, the assay is carried out by adding a substrate mixture of ^14 C-putrescine and N,N-dimethyl-casein to an Factor XIII assay mixture previously prepared by adding thrombin and dithiothreitol to Factor XIII in glycerol/water and tris(hydroxymethyl)aminomethane hydrochloride and then adding calcium ions, thereafter, incubating at 37° for 20 minutes, withdrawing samples to a filter disk, precipitating the casein with trichloracetic acid and then counting to determine the extent of incorporation of inhibitor of ^14 C-putrescine in casein. The result for 3-(1-oxo-4,7-nonadienyl)-oxiranecarbonitrile was 60 percent inhibition at 3 mM.

Take `C/C=C/C/C=C/CCC(=O)[C@H]1O[C@H]1C#N` [3-(1-oxo-4,7-nonadienyl)oxirane-carbonitrile]: under “at 3 mM, Factor XIII isolated from human plasma, 37° for 20 minutes”, the “percent inhibition of Factor XIIIa” value turned out to be 60%. The “inhibitory activity against Factor XIIIa (statement in words)” value (plasma transglutaminase enzyme) was “inhibitory activity against Factor XIIIa”.
